According to patent publication US20240390382A1, “METHOD FOR TREATING CANCER” (THE CHILDREN'S MEDICAL CENTER CORPORATION, priority 2021, published 2024):
“Also recorded” adds a separate entry of the source.

Tests used:
CTR9 edited CD34+HSPCs = assay: HSC phenotyping (flow cytometry) of CTR9 edited CD34+ HSPCs, chemical rescue experiment; type: cell-based, human; conditions: inhibitor used at the concentration of IC50, vs DMSO
Method: (§1) HEK293T cells are cultured in DMEM supplemented with 10% FBS and 1× penicillin/streptomycin. Human CD34 HSPCs were purchased from Fred Hutchinson Cancer Institute and cultured in StemSpan serum free culture medium (StemCell Technologies) supplemented with 1×CC100, 2 mM L-glutamine, 100 ng/mL TPO, 1×UM171 and 1× penicillin/streptomycin. For RNP based CRISPR editing of CD34+HSPCs, chemically synthesized gRNA and Cas9 protein were mixed and set at room temperature for 10 mins to allow the formation of deliverable RNP. The assembled RNP complexes were then delivered into CD34+HSPCs by Lonza 4D Nucleofector with program DZ-100. 48-72 hrs after nucleofection, cells were harvested for genomic DNA and the edited region was PCR amplified and the editing efficiency was analyzed by the ICE analysis from Synthego. Edited CD34+HSPCs were allowed to expand in the culture medium and harvested twice at day 3 and day 6 post-nucleofection. Harvested cells were washed in cold PBS and stained by HSC phenotyping antibody cocktail, which is composed of Brilliant Violet 421 anti-CD34, APC-H7 anti-CD45RA, PE-Cy7 anti-CD90, BB700 anti-CD133, PE anti-EPCR and APC anti-ITGA3 in ice cold FACS buffer (PBS+2% FBS) at 1:60 for 30 minutes in ice. Stained cells were then analyzed by BD LSRII flow cytometer. For the chemical rescue experiment, CDK9 inhibitors (LDCO000067 and AZD4573) and the YEATS domain inhibitor of ENL/ILLT3 (SR-0813) were used at the concentration of IC50.

[1] = tested on: key leading edge genes (MLLT3 regulated) in CTR9 edited cells; assay: qRT-PCR analysis of key leading edge genes in CTR9 edited cells; type: cell-based, human; conditions: two independent guides, inhibitor at the concentration of IC50, vs DMSO
Method: as §1, with “For the chemical rescue experiment, CDK9 inhibitors (LDCO000067 and AZD4573) and the YEATS domain inhibitor of ENL/ILLT3 (SR-0813) were used at the concentration of IC50.” left out
RNA from HSPCs was harvested by Qiagen RNeasy kit and quantified by nanodrop. […]

## O=C(NC1CCC1)c1ccc2nc(-c3cccc(NS(=O)(=O)NCCN4CCCCC4)c3)cn2c1 [SR-0813]
CTR9 edited CD34+HSPCs; CTR9 edited CD34+ HSPCs
  CTR9-perturbation-mediated HSC expansion (partial loss of CTR9): rescues HSC expansion phenotype; also recorded: completely suppressed
CTR9 edited CD34+HSPCs; primary human HSPCs
  impact on the bulk HSPC population (CD34+CD45RA-): without a major impact on the bulk HSPC population
  phenotypic LT- and ST-HSC expansion: suppression of phenotypic LT- and ST-HSC expansion occurred
[1]
  expression of key upregulated target genes (leading edge genes): downregulated many of the key upregulated target genes
